Assay results as given in article PMC2845622, “An Expanded Self-Antigen Peptidome Is Carried by the Human Lymph As Compared to the Plasma” (PLoS ONE, 2010).
pIC50: −log10 of the molar value. Like-named read-outs stand apart in the source and are kept apart here. Ends that are not written are not given here.

What was measured:
[1] = tested on: lymph node T cells of HLA-DR1 or HLA-DR4 transgenic mice; assay: T cell proliferation (thymidine incorporation) in lymph nodes from peptide immunized mice; type: cell-based, mouse; conditions: mice immunized with 100 µg peptide in complete Freund's adjuvant, lymph nodes 14 days later, 72 h culture with titrated peptide
Procedure: Finally we asked whether any of the tight-binding peptides, which also were conserved between mouse and human, could be recognized by peripheral T cells. HLA-DR1 or HLA-DR4 transgenic mice were immunized with 100 µg of several of the extracellular matrix peptides in complete Freund's adjuvant in the flanks and nape of the neck. Draining lymph nodes were collected 14 days later and reactive T cells analyzed by proliferation assay with thymidine incorporation.
HLA-DR1 and HLA-DR4 mice were immunized in the flanks and nape of the neck with 100 micrograms of peptide emulsion in Freund's adjuvant. Two weeks later popliteal and axillary lymph nodes were harvested and tested in proliferation assay. Briefly 6×10^5 cells were seeded in a 96 well plate with or without titrated amount of the immunizing peptide for 72 hours. Thymidine ([…]) was added 18 hours before cell harvesting. Cells were harvested on a Tomtec harvester (Model 94-3-468) and incorporated thymidine counted on a liquid scintillation counter (1450 Microbeta Wallac Trilux).

[2] = target: HLA-DR4 (HLA-DRA*0101,-DRB1*0401) (Homo sapiens, UniProt P01903+P01911, A100K/A169T/F76Y/I96L/K127E/L162R/M171V/N62H/P40V/Q125Y/R42H/S133A/S149N/S66Y/V115G/V209L/W38E); assay: Competition fluorescence polarization peptide binding assay, HLA-DR4 with HLA-DM
[3] = target: HLA-DR1 (HLA-DRA*0101,-DRB1*0101) (Homo sapiens, UniProt P01903+P01911, A100R/D57E/F55L/F60I/F76Y/I96L/L162R/M171V/P40L/Q125E/R42F/V115G/Y59C); assay: Competition fluorescence polarization peptide binding assay, HLA-DR1; conditions: competition with Alexa488-HA peptide 25 nM, HLA-DR1 100 nM, 3 days at 37°C, citrate pH 5/5.5; mean of single fit to triplicate values
[4] = competition with Alexa488-HA peptide 25 nM, HLA-DR4 and HLA-DM 100 nM each, 1 mM DTT, 3 days at 37°C, citrate pH 5/5.5, mean of single fit to triplicate values, read-out: DR4 IC50

Row | Substance | pIC50 [2, 4] | pIC50 [3] | Proliferative response of draining lymph node T cells to immunizing peptide [1] | pIC50 [2]
1 | Ac-EDTFAHLTPTPT [edtFAHLTPTPT] | – | 5.77 | – | –
2 | Ac-KNFASVQGVSLESG [knFASVQGVSLesg] | – | 6.38 | – | –
3 | Ac-NGVVGPTGPVGAAGP-NH2 [ngvVGPTGPVGAagp] | < 4.00 | – | – | –
4 | Ac-NGVVGPTGPVGAAGPA-NH2 [ngVVGPTGPVGaagpa] | < 4.00 | 4.74 | – | –
5 | Ac-PGALLGAPPPLVPAP [pgaLLGAPPPLVpap] | – | – | – | < 4.00
6 | Ac-PQGFQGNPGEPGE [pqgFQGNPGEPGe] | < 4.00 | 6.10 | – | –
7 | Ac-SPWIDASTAIDA [spWIDASTAIDa] | 4.22 | – | – | –
8 | MGPMGPRGPPGPA-NH2 [MGPMGPRGPpgpa] | < 4.00 | – | – | –
9 | MLQGTSSVLLLWG-NH2 [mLQGTsSVLLlwg] | 4.10 | 4.20 | – | –

More lines, in order of rising pIC50 [2, 4], values ahead:

Row | pIC50 [2, 4] | pIC50 [3] | Substance | Proliferative response of draining lymph node T cells to immunizing peptide [1] | pIC50 [2]
10 | 4.25 | 4.26 | NYAILRNLQP [nYAILRNLQP] | – | –
11 | 5.06 | 4.97 | Ac-GALLGAPPPLVPAP [gaLLGAPPPLVpap] | – | –
12 | 5.33 | 4.38 | Ac-HQVSINNTAVMQRL [hqVSINNTAVMqrl] | – | –
13 | 5.89 | – | Ac-DPFRLQSTSQHN [dpFRLQsTsQHn] | significant proliferation index | –
